Experimental data: patent publication US7138361B2, “Herbicidal heterocycles” (E. I. du Pont de Nemours and Company, priority 2000, dated 2006)

Key:
Format in all cases: in vivo
[1] = test system: Surinam grass (Brachiaria decumbens); assay: Test B preemergence; conditions: scale 0 to 100, 0 no effect, 100 complete control
Summary of the method: (§1)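 Greenhouse test: chemicals are formulated in a surfactant-containing non-phytotoxic solvent and applied either preemergence to planted seeds or postemergence to plants 2 to 18 cm tall. Response is rated visually versus controls after 13 to 15 days, 0 meaning no effect and 100 complete control.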

[2] = test system: pigweed (Amaranthus retroflexus); assay: Test B preemergence; conditions: scale 0 to 100, 0 no effect, 100 complete control
Summary of the method: as §1

[3] = test system: crabgrass (Digitaria sanguinalis); assay: Test B preemergence; conditions: scale 0 to 100, 0 no effect, 100 complete control
Summary of the method: as §1

[4] = test system: giant foxtail (Setaria faberii); assay: Test B preemergence; conditions: scale 0 to 100, 0 no effect, 100 complete control
Summary of the method: as §1

corn (Zea mays) [5] = assay: Test B preemergence; conditions: scale 0 to 100, 0 no effect, 100 complete control
Summary of the method: as §1

[6] = test system: lambsquarters (Chenopodium album); assay: Test B preemergence; conditions: scale 0 to 100, 0 no effect, 100 complete control
Summary of the method: as §1

[7] = test system: morning glory (Ipomoea hederacea); assay: Test B preemergence; conditions: scale 0 to 100, 0 no effect, 100 complete control
Summary of the method: as §1

[8] = test system: velvetleaf (Abutilon theophrasti); assay: Test B preemergence; conditions: scale 0 to 100, 0 no effect, 100 complete control
Summary of the method: as §1

[9] = test system: barnyardgrass (Echinochloa crus-galli); assay: Test B preemergence; conditions: scale 0 to 100, 0 no effect, 100 complete control
Summary of the method: as §1

rice (Oryza saliva) = assay: Test B preemergence; conditions: scale 0 to 100, 0 no effect, 100 complete control
Summary of the method: as §1

[10] = test system: cocklebur (Xanthium strumarium); assay: Test B preemergence; conditions: scale 0 to 100, 0 no effect, 100 complete control
Summary of the method: as §1

[11] = test system: Surinam grass (Brachiaria decumbens); assay: Test B postemergence; conditions: 13 to 15 days
Summary of the method: as §1

wild oat (Avena fatua) = assay: Test B postemergence; conditions: 13 to 15 days
Summary of the method: as §1

[12] = test system: wheat (Triticum aestivum); assay: Test B postemergence; conditions: 13 to 15 days
Summary of the method: as §1

[13] = test system: pigweed (Amaranthus retroflexus); assay: Test B postemergence; conditions: 13 to 15 days
Summary of the method: as §1

[14] = test system: crabgrass (Digitaria sanguinalis); assay: Test B postemergence; conditions: 13 to 15 days
Summary of the method: as §1

[15] = test system: giant foxtail (Setaria faberii); assay: Test B postemergence; conditions: 13 to 15 days
Summary of the method: as §1

corn (Zea mays) [16] = assay: Test B postemergence; conditions: 13 to 15 days
Summary of the method: as §1

[17] = test system: lambsquarters (Chenopodium album); assay: Test B postemergence; conditions: 13 to 15 days
Summary of the method: as §1

[18] = test system: morning glory (Ipomoea hederacea); assay: Test B postemergence; conditions: 13 to 15 days
Summary of the method: as §1

[19] = test system: velvetleaf (Abutilon theophrasti); assay: Test B postemergence; conditions: 13 to 15 days
Summary of the method: as §1

[20] = test system: blackgrass (Alopecurus myosuroides); assay: Test B postemergence; conditions: 13 to 15 days
Summary of the method: as §1

[21] = test system: barnyardgrass (Echinochloa crus-galli); assay: Test B postemergence; conditions: 13 to 15 days
Summary of the method: as §1

[22] = test system: cocklebur (Xanthium strumarium); assay: Test B postemergence; conditions: 13 to 15 days
Summary of the method: as §1

[23] = Rate 125 g/ha, scale 0 (no effect) to 100 (complete control)
[24] = Rate 500 g/ha, scale 0 to 100, 0 is no effect, 100 is complete control

Compound: CC1CCc2cn(C3CCN(c4cccc(C(F)(F)F)c4)C3=O)nc21 (stereo not drawn) [Compound 11]
- Plant response rating, Surinam grass ([1]; Preemergence, Rate 500 g/ha): 0
- Plant response rating, Surinam grass ([1]; preemergence, Rate 125 g/ha): 0
- Plant response rating, Pigweed ([2]; Preemergence, Rate 500 g/ha): 0
- Plant response rating, Pigweed ([2]; preemergence, Rate 125 g/ha): 0
- Plant response rating, Crabgrass ([3]; Preemergence, Rate 500 g/ha): 0
- Plant response rating, Crabgrass ([3]; preemergence, Rate 125 g/ha): 0
- Plant response rating, Foxtail, Giant ([4]; Preemergence, Rate 500 g/ha): 0
- Plant response rating, Foxtail, Giant ([4]; preemergence, Rate 125 g/ha): 0
- Plant response rating, Corn (corn (Zea mays) [5]; Preemergence, Rate 500 g/ha): 0
- Plant response rating, Corn (corn (Zea mays) [5]; preemergence, Rate 125 g/ha): 0
- Plant response rating, Lambsquarters ([6]; Preemergence, Rate 500 g/ha): 0
- Plant response rating, Lambsquarters ([6]; preemergence, Rate 125 g/ha): 0
- Plant response rating, Morningglory ([7]; Preemergence, Rate 500 g/ha): 0
- Plant response rating, Morningglory ([7]; preemergence, Rate 125 g/ha): 0
- Plant response rating, Velvetleaf ([8]; Preemergence, Rate 500 g/ha): 0
- Plant response rating, Velvetleaf ([8]; preemergence, Rate 125 g/ha): 0
- Plant response rating, Barnyardgrass ([9]; Preemergence, Rate 500 g/ha): 0
- Plant response rating, Barnyardgrass ([9]; preemergence, Rate 125 g/ha): 0
- Plant response rating, Rice (rice (Oryza saliva); Preemergence, Rate 500 g/ha): 0
- Plant response rating, Rice (rice (Oryza saliva); preemergence, Rate 125 g/ha): 0
- Plant response rating, Cocklebur ([10]; Preemergence, Rate 500 g/ha): 0
- Plant response rating, Cocklebur ([10]; preemergence, Rate 125 g/ha): 0
- Plant response rating, Surinam grass [11, 23]: 0
- Plant response rating, Surinam grass [11, 24]: 0
- Plant response rating, Wild Oat (wild oat (Avena fatua); [23]): 0
- Plant response rating, Wild Oat (wild oat (Avena fatua); [24]): 0
- Plant response rating, Wheat [12, 23]: 0
- Plant response rating, Wheat [12, 24]: 0
- Plant response rating, Pigweed [13, 23]: 0
- Plant response rating, Pigweed [13, 24]: 0
- Plant response rating, Crabgrass [14, 23]: 0
- Plant response rating, Crabgrass [14, 24]: 0
- Plant response rating, Foxtail, Giant [15, 23]: 0
- Plant response rating, Foxtail, Giant [15, 24]: 0
- Plant response rating, Corn (corn (Zea mays) [16]; [23]): 0
- Plant response rating, Corn (corn (Zea mays) [16]; [24]): 0
- Plant response rating, Lambsquarters [17, 23]: 0
- Plant response rating, Lambsquarters [17, 24]: 0
- Plant response rating, Morningglory [18, 23]: 0
- Plant response rating, Morningglory [18, 24]: 0
- Plant response rating, Velvetleaf [19, 23]: 0
- Plant response rating, Velvetleaf [19, 24]: 0
- Plant response rating, Blackgrass [20, 23]: 0
- Plant response rating, Blackgrass [20, 24]: 0
- Plant response rating, Barnyardgrass [21, 23]: 0
- Plant response rating, Barnyardgrass [21, 24]: 0
- Plant response rating, Cocklebur [22, 23]: 0
- Plant response rating, Cocklebur [22, 24]: 0

Compound: O=C1C(n2cc(Cl)c(C3CC3)n2)CCN1c1cccc(C(F)(F)F)c1 (stereo not drawn) [Compound 12]
- Plant response rating, Surinam grass ([1]; Preemergence, Rate 500 g/ha): 0
- Plant response rating, Surinam grass ([1]; preemergence, Rate 125 g/ha): 0
- Plant response rating, Pigweed ([2]; Preemergence, Rate 500 g/ha): 0
- Plant response rating, Pigweed ([2]; preemergence, Rate 125 g/ha): 0
- Plant response rating, Crabgrass ([3]; Preemergence, Rate 500 g/ha): 0
- Plant response rating, Crabgrass ([3]; preemergence, Rate 125 g/ha): 0
- Plant response rating, Foxtail, Giant ([4]; Preemergence, Rate 500 g/ha): 0
- Plant response rating, Foxtail, Giant ([4]; preemergence, Rate 125 g/ha): 0
- Plant response rating, Corn (corn (Zea mays) [5]; Preemergence, Rate 500 g/ha): 0
- Plant response rating, Corn (corn (Zea mays) [5]; preemergence, Rate 125 g/ha): 0
- Plant response rating, Lambsquarters ([6]; Preemergence, Rate 500 g/ha): 0
- Plant response rating, Lambsquarters ([6]; preemergence, Rate 125 g/ha): 0
- Plant response rating, Morningglory ([7]; Preemergence, Rate 500 g/ha): 0
- Plant response rating, Morningglory ([7]; preemergence, Rate 125 g/ha): 0
- Plant response rating, Velvetleaf ([8]; Preemergence, Rate 500 g/ha): 0
- Plant response rating, Velvetleaf ([8]; preemergence, Rate 125 g/ha): 0
- Plant response rating, Barnyardgrass ([9]; Preemergence, Rate 500 g/ha): 0
- Plant response rating, Barnyardgrass ([9]; preemergence, Rate 125 g/ha): 0
- Plant response rating, Rice (rice (Oryza saliva); Preemergence, Rate 500 g/ha): 0
- Plant response rating, Rice (rice (Oryza saliva); preemergence, Rate 125 g/ha): 0
- Plant response rating, Cocklebur ([10]; Preemergence, Rate 500 g/ha): 0
- Plant response rating, Cocklebur ([10]; preemergence, Rate 125 g/ha): 0
- Plant response rating, Surinam grass [11, 23]: 0
- Plant response rating, Surinam grass [11, 24]: 0
- Plant response rating, Wild Oat (wild oat (Avena fatua); [23]): 0
- Plant response rating, Wild Oat (wild oat (Avena fatua); [24]): 0
- Plant response rating, Wheat [12, 23]: 0
- Plant response rating, Wheat [12, 24]: 0
- Plant response rating, Pigweed [13, 23]: 0
- Plant response rating, Pigweed [13, 24]: 0
- Plant response rating, Crabgrass [14, 23]: 0
- Plant response rating, Crabgrass [14, 24]: 0
- Plant response rating, Foxtail, Giant [15, 23]: 0
- Plant response rating, Foxtail, Giant [15, 24]: 0
- Plant response rating, Corn (corn (Zea mays) [16]; [23]): 0
- Plant response rating, Corn (corn (Zea mays) [16]; [24]): 0
- Plant response rating, Lambsquarters [17, 23]: 0
- Plant response rating, Lambsquarters [17, 24]: 0
- Plant response rating, Morningglory [18, 23]: 0
- Plant response rating, Morningglory [18, 24]: 0
- Plant response rating, Velvetleaf [19, 23]: 0
- Plant response rating, Velvetleaf [19, 24]: 0
- Plant response rating, Blackgrass [20, 23]: 0
- Plant response rating, Blackgrass [20, 24]: 0
- Plant response rating, Barnyardgrass [21, 23]: 0
- Plant response rating, Barnyardgrass [21, 24]: 0
- Plant response rating, Cocklebur [22, 23]: 0
- Plant response rating, Cocklebur [22, 24]: 0

Compound: CCC(C)c1ccn(C2OCN(c3cccc(C(F)(F)F)c3)C2=O)n1 (stereo not drawn) [Compound 24]
- Plant response rating, Surinam grass ([1]; Preemergence, Rate 500 g/ha): 80
- Plant response rating, Surinam grass ([1]; preemergence, Rate 125 g/ha): 20
- Plant response rating, Pigweed ([2]; Preemergence, Rate 500 g/ha): 100
- Plant response rating, Pigweed ([2]; preemergence, Rate 125 g/ha): 100
- Plant response rating, Crabgrass ([3]; Preemergence, Rate 500 g/ha): 100
- Plant response rating, Crabgrass ([3]; preemergence, Rate 125 g/ha): 100
- Plant response rating, Foxtail, Giant ([4]; Preemergence, Rate 500 g/ha): 100
- Plant response rating, Foxtail, Giant ([4]; preemergence, Rate 125 g/ha): 90
- Plant response rating, Corn (corn (Zea mays) [5]; Preemergence, Rate 500 g/ha): 20
- Plant response rating, Corn (corn (Zea mays) [5]; preemergence, Rate 125 g/ha): 0
- Plant response rating, Lambsquarters ([6]; Preemergence, Rate 500 g/ha): 100
- Plant response rating, Lambsquarters ([6]; preemergence, Rate 125 g/ha): 100
- Plant response rating, Morningglory ([7]; Preemergence, Rate 500 g/ha): 0
- Plant response rating, Morningglory ([7]; preemergence, Rate 125 g/ha): 0
- Plant response rating, Velvetleaf ([8]; Preemergence, Rate 500 g/ha): 0
- Plant response rating, Velvetleaf ([8]; preemergence, Rate 125 g/ha): 0
- Plant response rating, Barnyardgrass ([9]; Preemergence, Rate 500 g/ha): 100
- Plant response rating, Barnyardgrass ([9]; preemergence, Rate 125 g/ha): 20
- Plant response rating, Rice (rice (Oryza saliva); Preemergence, Rate 500 g/ha): 0
- Plant response rating, Rice (rice (Oryza saliva); preemergence, Rate 125 g/ha): 0
- Plant response rating, Cocklebur ([10]; Preemergence, Rate 500 g/ha): 0
- Plant response rating, Cocklebur ([10]; preemergence, Rate 125 g/ha): 0
- Plant response rating, Surinam grass [11, 23]: 0
- Plant response rating, Surinam grass [11, 24]: 50
- Plant response rating, Wild Oat (wild oat (Avena fatua); [23]): 0
- Plant response rating, Wild Oat (wild oat (Avena fatua); [24]): 0
- Plant response rating, Wheat [12, 23]: 0
- Plant response rating, Wheat [12, 24]: 0
- Plant response rating, Pigweed [13, 23]: 80
- Plant response rating, Pigweed [13, 24]: 100
- Plant response rating, Crabgrass [14, 23]: 60
- Plant response rating, Crabgrass [14, 24]: 90
- Plant response rating, Foxtail, Giant [15, 23]: 20
- Plant response rating, Foxtail, Giant [15, 24]: 80
- Plant response rating, Corn (corn (Zea mays) [16]; [23]): 0
- Plant response rating, Corn (corn (Zea mays) [16]; [24]): 50
- Plant response rating, Lambsquarters [17, 23]: 90
- Plant response rating, Lambsquarters [17, 24]: 100
- Plant response rating, Morningglory [18, 23]: 0
- Plant response rating, Morningglory [18, 24]: 40
- Plant response rating, Velvetleaf [19, 23]: 0
- Plant response rating, Velvetleaf [19, 24]: 0
- Plant response rating, Blackgrass [20, 23]: 0
- Plant response rating, Blackgrass [20, 24]: 0
- Plant response rating, Barnyardgrass [21, 23]: 70
- Plant response rating, Barnyardgrass [21, 24]: 100
- Plant response rating, Cocklebur [22, 23]: 20
- Plant response rating, Cocklebur [22, 24]: 40
